Patent US20100076015A1, “Aminopyridine Derivatives” (VANTIA LIMITED, priority 2008, published 2010)

Experiments:
Format in all cases: biochemical
[1] = molecular target: T1, Human KLK1 (Homo sapiens, UniProt P06870); experiment: Determination of the IC50 for KLK1 (fluorogenic substrate H-DVal-Leu-Arg-AFC); conditions: 37° C.
T1 construct: purchased Callbiochem (Calbiochem)
Outline: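 IC50 values reflect residual human KLK1 activity, read as initial rate from optical absorbance change at 410 nm. Incubations ran at 37° C with H-DVal-Leu-Arg-AFC as substrate across a compound concentration series.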

[2] = molecular target: thrombin (Homo sapiens, UniProt P00734); experiment: Enzyme selectivity: thrombin (chromogenic substrate S-2238); conditions: chromogenic substrate S-2238, 37° C.
Procedure: (§1) Determination of Enzyme Selectivity
(§2) Selected compounds were further screened for inhibitory activity against other trypsin-like serine proteases using the appropriate enzyme and chromogenic substrate (Chromogenix AB). The activity against the following human enzymes was tested (substrate in brackets):—plasma kallikrein (S-2302), thrombin (S-2238), plasmin (S-2390) and trypsin (S-2222). The enzyme was incubated at 37° C. with the chromogenic substrate. Residual enzyme activity (initial rate of reaction) was determined by measuring the change in optical absorbance at 405 nm.

[3] = molecular target: trypsin; experiment: Enzyme selectivity: trypsin (chromogenic substrate S-2222); conditions: human enzyme, chromogenic substrate S-2222, 37° C.
Procedure: as §1, §2

[4] = molecular target: plasmin (Homo sapiens, UniProt P00747); experiment: Enzyme selectivity: plasmin (chromogenic substrate S-2390); conditions: chromogenic substrate S-2390, 37° C.
Sequence of plasmin (P00747 581-810 limits assumed): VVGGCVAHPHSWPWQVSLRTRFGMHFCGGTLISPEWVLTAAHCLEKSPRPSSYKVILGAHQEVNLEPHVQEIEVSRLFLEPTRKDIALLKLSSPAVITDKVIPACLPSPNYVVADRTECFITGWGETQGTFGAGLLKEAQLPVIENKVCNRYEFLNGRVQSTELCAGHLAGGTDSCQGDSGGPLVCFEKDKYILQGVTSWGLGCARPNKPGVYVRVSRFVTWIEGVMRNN
Sequence of plasmin (P00747 97-580 partner limits assumed): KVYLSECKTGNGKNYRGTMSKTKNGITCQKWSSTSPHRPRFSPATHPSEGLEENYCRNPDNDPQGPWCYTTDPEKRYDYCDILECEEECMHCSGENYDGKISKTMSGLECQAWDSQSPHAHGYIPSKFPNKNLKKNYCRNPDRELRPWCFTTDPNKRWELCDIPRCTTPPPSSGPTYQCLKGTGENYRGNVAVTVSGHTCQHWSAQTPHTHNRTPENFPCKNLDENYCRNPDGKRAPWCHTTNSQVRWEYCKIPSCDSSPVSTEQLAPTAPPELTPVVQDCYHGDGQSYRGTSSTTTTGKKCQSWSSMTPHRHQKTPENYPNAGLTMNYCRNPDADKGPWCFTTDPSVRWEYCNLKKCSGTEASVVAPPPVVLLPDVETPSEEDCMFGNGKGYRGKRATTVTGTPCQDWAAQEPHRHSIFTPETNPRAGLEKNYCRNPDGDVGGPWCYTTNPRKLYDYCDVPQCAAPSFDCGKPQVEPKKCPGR
Procedure: as §1, §2

[5] = molecular target: plasma kallikrein (Homo sapiens, UniProt P03952); experiment: Enzyme selectivity: plasma kallikrein (chromogenic substrate S-2302); conditions: chromogenic substrate S-2302, 37° C.
Sequence of plasma kallikrein (P03952 20-638): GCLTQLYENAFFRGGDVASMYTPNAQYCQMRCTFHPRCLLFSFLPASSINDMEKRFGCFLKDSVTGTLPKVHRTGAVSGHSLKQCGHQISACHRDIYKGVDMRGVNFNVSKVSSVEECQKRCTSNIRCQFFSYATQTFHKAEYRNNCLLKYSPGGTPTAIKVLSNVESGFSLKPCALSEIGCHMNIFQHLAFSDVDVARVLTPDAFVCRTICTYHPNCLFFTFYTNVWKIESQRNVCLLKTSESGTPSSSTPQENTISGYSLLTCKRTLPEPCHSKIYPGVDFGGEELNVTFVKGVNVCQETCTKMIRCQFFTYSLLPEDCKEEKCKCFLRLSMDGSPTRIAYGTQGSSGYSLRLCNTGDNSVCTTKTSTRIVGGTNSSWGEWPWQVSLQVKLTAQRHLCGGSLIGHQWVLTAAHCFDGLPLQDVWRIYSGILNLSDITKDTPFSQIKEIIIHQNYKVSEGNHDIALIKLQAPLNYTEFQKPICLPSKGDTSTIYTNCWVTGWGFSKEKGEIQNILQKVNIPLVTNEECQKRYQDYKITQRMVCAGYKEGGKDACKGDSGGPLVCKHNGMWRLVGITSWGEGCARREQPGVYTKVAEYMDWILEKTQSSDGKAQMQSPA
Procedure: as §1, §2

T1 sequence (P06870 25-262): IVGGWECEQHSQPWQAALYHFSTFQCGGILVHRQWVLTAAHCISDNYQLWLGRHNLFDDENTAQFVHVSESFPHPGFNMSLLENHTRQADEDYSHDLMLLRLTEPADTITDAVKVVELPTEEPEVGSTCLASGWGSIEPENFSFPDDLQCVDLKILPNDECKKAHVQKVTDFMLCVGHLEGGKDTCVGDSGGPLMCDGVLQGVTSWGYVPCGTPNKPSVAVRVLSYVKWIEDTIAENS

Structure (SMILES) | IC50 [1] | IC50 [2] | IC50 [3] | IC50 [4] | IC50 [5]
CN1CCC[C@@H]1C(=O)N[C@@H](Cc1ccc(F)c(F)c1)C(=O)NCc1ccc(N)nc1 [Example 5, (R)-1-Methyl-pyrrolidine-2-carboxylic acid [(S)-1-[(6-amino-pyridin-3-ylmethyl)-carbamoyl]-2-(3,4-difluoro-phenyl)-ethyl]-amide] | 0.0013 µM | > 10 µM | > 10 µM | > 10 µM | > 10 µM
Nc1ccc(CNC(=O)[C@H](Cc2cccc(C(F)(F)F)c2)NC(=O)c2ccc[nH]2)cn1 [Example 229, 1H-Pyrrole-2-carboxylic acid [(S)-1-[(6-amino-pyridin-3-ylmethyl)-carbamoyl]-2-(3-trifluoromethyl-phenyl)-ethyl]-amide] | 0.0034 µM | > 10 µM | > 10 µM | > 10 µM | > 10 µM
CN1CCC[C@@H]1C(=O)N[C@@H](Cc1cccc2ccccc12)C(=O)NCc1ccc(N)nc1 [Example 92, (R)-1-Methyl-pyrrolidine-2-carboxylic acid {(S)-1-[(6-amino-pyridin-3-ylmethyl)-carbamoyl]-2-naphthalen-1-yl-ethyl}-amide] | 0.0036 µM | > 10 µM | > 10 µM | > 10 µM | > 10 µM
CCN(CC)[C@@H](C)C(=O)N[C@@H](Cc1ccc(F)c(F)c1)C(=O)NCc1ccc(N)nc1 [Example 355, (S)—N-[(S)-1-[(6-Amino-pyridin-3-ylmethyl)-carbamoyl]-2-(3,4-difluoro-phenyl)-ethyl]-2-diethylamino-propionamide] | 0.0025 µM | > 10 µM | > 10 µM | > 10 µM | > 10 µM
CCC(C)[C@@H](N)C(=O)N[C@@H](Cc1ccccc1)C(=O)NCc1ccc(N)nc1 (stereo partly drawn) [Example 26, (R)-2-Amino-3-methyl-pentanoic acid {(S)-1-[(6-amino-pyridin-3-ylmethyl)-carbamoyl]-2-phenyl-ethyl}-amide] | 0.0205 µM | > 10 µM | > 10 µM | > 10 µM | > 10 µM
Cc1cc(C)c(C(=O)N[C@@H](Cc2cccc(Cl)c2)C(=O)NCc2ccc(N)nc2)[nH]1 [Example 235, 3,5-Dimethyl-1H-pyrrole-2-carboxylic acid [(S)-1-[(6-amino-pyridin-3-ylmethyl)-carbamoyl]-2-(3-chloro-phenyl)-ethyl]-amide] | 0.0024 µM | > 10 µM | > 10 µM | > 10 µM | > 10 µM
CN1CCCC[C@@H]1C(=O)N[C@@H](Cc1ccc(F)cc1)C(=O)NCc1ccc(N)nc1 [Example 145, (R)-1-Methyl-piperidine-2-carboxylic acid [(S)-1-[(6-amino-pyridin-3-ylmethyl)-carbamoyl]-2-(4-fluoro-phenyl)-ethyl]-amide] | 0.0105 µM | > 10 µM | > 10 µM | > 10 µM | > 10 µM
CC1CCCC(C)N1CC(=O)N[C@@H](Cc1ccc(F)c(F)c1)C(=O)NCc1ccc(N)nc1 (stereo partly drawn) [Example 365, (S)—N-(6-Amino-pyridin-3-ylmethyl)-3-(3,4-difluoro-phenyl)-2-[2-(2,6-dimethyl-piperidin-1-yl)-acetylamino]-propionamide] | 0.0025 µM | > 10 µM | > 10 µM | > 10 µM | > 10 µM
CN(C)[C@H](Cc1ccccc1)C(=O)N[C@@H](Cc1ccc(Cl)c(Cl)c1)C(=O)NCc1ccc(N)nc1 [Example 400, (R)—N-[(S)-1-[(6-Amino-pyridin-3-ylmethyl)-carbamoyl]-2-(3,4-dichloro-phenyl)-ethyl]-2-dimethylamino-3-phenyl-propionamide] | 0.0017 µM | > 10 µM | > 10 µM | > 10 µM | > 10 µM
CC(C)N(CC(=O)N[C@@H](Cc1ccc(F)c(F)c1)C(=O)NCc1ccc(N)nc1)C(C)C [Example 157, (S)—N-(6-Amino-pyridin-3-ylmethyl)-3-(3,4-difluoro-phenyl)-2-(2-diisopropylamino-acetylamino)-propionamide] | 0.123 µM | > 10 µM | > 10 µM | > 10 µM | > 10 µM
Cc1cc(C)c(C(=O)N[C@@H](Cc2cccc(C(F)(F)F)c2)C(=O)NCc2ccc(N)nc2)[nH]1 [Example 232, 3,5-Dimethyl-1H-pyrrole-2-carboxylic acid [(S)-1-[(6-amino-pyridin-3-ylmethyl)-carbamoyl]-2-(3-trifluoromethyl-phenyl)-ethyl]-amide] | 0.0015 µM | > 10 µM | > 10 µM | > 10 µM | > 10 µM
Cc1cc(C)c(C(=O)N[C@@H](Cc2cccc3ccccc23)C(=O)NCc2ccc(N)nc2)[nH]1 [Example 231, 3,5-Dimethyl-1H-pyrrole-2-carboxylic acid {(S)-1-[(6-amino-pyridin-3-ylmethyl)-carbamoyl]-2-naphthalen-1-yl-ethyl}-amide] | 0.0031 µM | > 10 µM | > 10 µM | > 10 µM | > 10 µM
CCC(C)[C@@H](N)C(=O)N[C@@H](CC1CCCC2CCCCC21)C(=O)NCc1ccc(N)nc1 (stereo partly drawn) [Example 2, (R)-2-Amino-3-methyl-pentanoic acid [(S)-1-[(6-amino-pyridin-3-ylmethyl)-carbamoyl]-2-(decahydro-naphthalen-1-yl)-ethyl]-amide] | 0.001 µM | > 10 µM | > 10 µM | > 10 µM | > 10 µM
CC(C)(C)[C@@H](N)C(=O)N[C@@H](Cc1ccc(Cl)c(Cl)c1)C(=O)NCc1ccc(N)nc1 [Example 61, (R)-2-Amino-N-[(S)-1-[(6-amino-pyridin-3-ylmethyl)-carbamoyl]-2-(3,4-dichloro-phenyl)-ethyl]-3,3-dimethyl-butyramide] | 0.0004 µM | > 10 µM | > 10 µM | > 10 µM | > 10 µM
CCC(C)[C@@H](N)C(=O)N[C@@H](Cc1ccccc1C(F)(F)F)C(=O)NCc1ccc(N)nc1 (stereo partly drawn) [Example 25, (R)-2-Amino-3-methyl-pentanoic acid [(S)-1-[(6-amino-pyridin-3-ylmethyl)-carbamoyl]-2-(2-trifluoromethyl-phenyl)-ethyl]-amide] | 0.0098 µM | > 10 µM | > 10 µM | > 10 µM | > 10 µM
CN[C@H](C)C(=O)N[C@@H](Cc1ccc(Cl)c(Cl)c1)C(=O)NCc1ccc(N)nc1 [Example 62, (R)—N-[(S)-1-[(6-Amino-pyridin-3-ylmethyl)-carbamoyl]-2-(3,4-dichloro-phenyl)-ethyl]-2-methylamino-propionamide] | 0.0024 µM | > 10 µM | > 10 µM | > 10 µM | > 10 µM
Nc1ccc(CNC(=O)[C@H](CC2CCCC3CCCCC32)NC(=O)c2ccc[nH]2)cn1 (stereo partly drawn) [Example 227, 1H-Pyrrole-2-carboxylic acid [(S)-1-[(6-amino-pyridin-3-ylmethyl)-carbamoyl]-2-(decahydro-naphthalen-1-yl)-ethyl]-amide] | 0.0053 µM | > 10 µM | > 10 µM | > 10 µM | > 10 µM
CN1CCC[C@@H]1C(=O)N[C@@H](Cc1ccc(Cl)c(Cl)c1)C(=O)NCc1ccc(N)nc1 [Example 90, (R)-1-Methyl-pyrrolidine-2-carboxylic acid [(S)-1-[(6-amino-pyridin-3-ylmethyl)-carbamoyl]-2-(3,4-dichloro-phenyl)-ethyl]-amide] | 0.00086 µM | > 10 µM | > 10 µM | > 10 µM | > 10 µM
CN[C@H](Cc1ccccc1)C(=O)N[C@@H](Cc1ccc(Cl)c(Cl)c1)C(=O)NCc1ccc(N)nc1 [Example 60, (R)—N-[(S)-1-[(6-Amino-pyridin-3-ylmethyl)-carbamoyl]-2-(3,4-dichloro-phenyl)-ethyl]-2-methylamino-3-phenyl-propionamide] | 0.00071 µM | > 10 µM | > 10 µM | > 10 µM | > 10 µM
Nc1ccc(CNC(=O)[C@H](Cc2ccc(Cl)c(Cl)c2)NC(=O)[C@H]2CCCN2)cn1 [Example 4, (R)-Pyrrolidine-2-carboxylic acid [(S)-1-[(6-amino-pyridin-3-ylmethyl)-carbamoyl]-2-(3,4-dichloro-phenyl)-ethyl]-amide] |  | > 10 µM | > 10 µM | > 10 µM | > 10 µM
COC(=O)CN1CCC[C@@H]1C(=O)N[C@@H](Cc1ccc(F)c(F)c1)C(=O)NCc1ccc(N)nc1 [Example 134, {(R)-2-[(S)-1-[(6-Amino-pyridin-3-ylmethyl)-carbamoyl]-2-(3,4-difluoro-phenyl)-ethylcarbamoyl]-pyrrolidin-1-yl}-acetic acid methyl ester] | 0.0135 µM |  |  |  | 
CC(C)[C@@H](N)C(=O)N[C@@H](CC1CCCC2CCCCC21)C(=O)NCc1ccc(N)nc1 (stereo partly drawn) [Example 14, (R)-2-Amino-N-[(S)-1-[(6-amino-pyridin-3-ylmethyl)-carbamoyl]-2-(decahydro-naphthalen-1-yl)-ethyl]-3-methyl-butyramide] | 0.00096 µM |  |  |  | 
